Drawing on US6780821B1, “Substituted phenyl uracils” (Bayer Aktiengesellschaft, priority 1998, dated 2004), this text covers melting point for 2 compounds.

In general, melting point refers to the temperature, or range, at which the solid turns liquid.

Compound `COc1ccc(Oc2cc(-n3c(=O)cc(C(F)(F)F)[nH]c3=O)c(F)cc2C#N)cc1` [Example 1, 4-(3,6-dihydro-2,6-dioxo-4-trifluoromethyl-1(2H)-pyrimidin-1-yl)-5-fluoro-2-(4-methoxy-phenoxy)-benzonitrile] gave a melting point of 84 °C. As for `COc1ccc(Oc2cc(-n3c(=O)cc(C(F)(F)F)n(C)c3=O)c(F)cc2C#N)cc1` [Example 2, 4-(3,6-dihydro-2,6-dioxo-3-methyl-4-trifluoromethyl-1(2H)-pyrimidin-1-yl)-5-fluoro-2-(4-methoxy-phenoxy)-benzonitrile], the figure is 62 °C.
